The values below come from patent publication US12371454B2, “Cyclic peptide compound having Kras inhibitory action” (priority 2019, dated 2025).

As usually defined, the IC50 is the midpoint of a concentration-inhibition curve.

Starred links: 1 amine or outer side, 2 acyl side, 3 side chain; linkers in the order of their positions; H or OH if unused. Positions of bridges follow the written chain, without caps; N, C: chain ends. Non-standard residues stand in square brackets, D forms with d. Residues, ends and D or L forms follow the SMILES beside them. *: point of attachment. hPhe(3-Cl-4-CF3) = N[C@@H](CCc1ccc(C(F)(F)F)c(Cl)c1)C(=O)O; hPhe(4-CF3) = N[C@@H](CCc1ccc(C(F)(F)F)cc1)C(=O)O; NMePhe(4-Cl) = CN[C@@H](Cc1ccc(Cl)cc1)C(=O)O; X4 = O=C([C@H](Cc1cc(F)cc(Cl)c1)N[*:1])[*:2]; NMePhe(4-F) = CN[C@@H](Cc1ccc(F)cc1)C(=O)O; Abu(4,4,4-F3) = N[C@@H](CC(F)(F)F)C(=O)O; NMeGly(cPent) = CN[C@H](C(=O)O)C1CCCC1; NMeCha = CN[C@@H](CC1CCCCC1)C(=O)O; Azetidine(3,3-F2) = FC1(F)CN(*)C1; NMeF = CN[C@@H](Cc1ccccc1)C(=O)O; N(CH2CH2)2CF2 = FC1(F)CCN(*)CC1; NMeD = CN[C@@H](CC(=O)O)C(=O)O; NMeL = CN[C@@H](CC(C)C)C(=O)O; NMeV = CN[C@H](C(=O)O)C(C)C; Trifluoroethyl = FC(F)(F)C*; d(β3hA) = C[C@@H](N)CC(=O)O; NMeS = CN[C@@H](CO)C(=O)O; Pip = O=C(O)[C@@H]1CCCCN1; NMeA = CN[C@@H](C)C(=O)O; NMeAib = CNC(C)(C)C(=O)O; Nle = CCCC[C@H](N)C(=O)O; Piperidide = C1CCN(*)CC1; Pyrrolidide = C1CCN(*)C1; dNMeA = CN[C@H](C)C(=O)O; Ac5c = NC1(C(=O)O)CCCC1; Aze = O=C(O)[C@@H]1CCN1; NcPrGly = O=C(O)CNC1CC1; NEtG = CCNCC(=O)O; Sar = CNCC(=O)O

The target of this assay is T1, Kras and SOS1 (biotin-tagged human Kras loaded with GDP, His-tagged human SOS1) (Homo sapiens, UniProt P01116, G12D).
T1 construct: made in house; host or cells: E. coli (stated for Kras only)
T1 sequence (P01116 1-188 isoform P01116-2 G12D): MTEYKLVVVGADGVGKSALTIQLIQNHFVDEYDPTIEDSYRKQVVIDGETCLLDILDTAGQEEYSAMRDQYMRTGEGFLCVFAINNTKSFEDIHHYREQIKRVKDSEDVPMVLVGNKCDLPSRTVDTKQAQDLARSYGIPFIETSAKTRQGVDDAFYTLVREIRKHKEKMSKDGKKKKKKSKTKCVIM
Description: Protein-protein interaction inhibition between Kras and SOS1 (KrasGl2D-SOS PPI) using AlphaScreen. In kind it is binding. The conditions noted are these: AlphaScreen; biotin-tagged human Kras loaded with GDP, His-tagged human SOS1; read-out: KRAS G12D-SOS PPI IC50. Summed up:
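Binding between SOS1 and Kras is detected as bead-proximity luminescence: illuminate Ni-conjugated donors (680 nm), collect 520-620 nm emission from streptavidin-conjugated acceptors; Kras carries biotin and GDP loaded after purification, SOS1 carries a His tag.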
For orientation: Bead proximity is the source of the signal in Alpha formats.
In the case of `CC[C@H](C)[C@@H]1NC(=O)[C@H](C)N(C)C(=O)C[C@@H](C(=O)N2CCCC2)NC(=O)[C@H](CC(C)C)N(C)C(=O)[C@H](Cc2ccccc2)N(C)C(=O)[C@H](CC(C)C)N(C)C(=O)[C@H](CCc2ccc(C(F)(F)F)cc2)NC(=O)CN(C)C(=O)[C@H](Cc2ccc(Cl)cc2)N(C)C(=O)CN(C)C(=O)CN(C)C1=O` [Compound 199] ([NMeA]I[Sar][Sar][NMePhe(4-Cl)][Sar][hPhe(4-CF3)][NMeL][NMeF][NMeL]D-Pyrrolidide; lactam N-11), the IC50 amounted to 36 nM.

Consider `CCCC[C@@H]1NC(=O)[C@H](Cc2cc(F)cc(Cl)c2)NC(=O)CN(C)C(=O)[C@H](Cc2ccc(Cl)cc2)N(C)C(=O)CN(C)C(=O)CN(C)C(=O)[C@H]([C@@H](C)CC)NC(=O)[C@H](CC(C)C)N(C)C(=O)C[C@@H](C(=O)N2CCCCC2)N(C)C(=O)[C@H](CC(C)C)NC(=O)C(C)(C)N(C)C1=O` [Compound 202] ([NMeL]I[Sar][Sar][NMePhe(4-Cl)][Sar][X4][Nle][NMeAib]L[NMeD]-Piperidide; lactam N-11), for which the IC50 was found to be 39 nM.

For the molecule `CC[C@H](C)[C@@H]1NC(=O)[C@H](CC(C)C)N(C)C(=O)C[C@@H](C)NC(=O)[C@H](C(C)C)N(C)C(=O)C2(CCCC2)NC(=O)[C@@H]2CCCN2C(=O)[C@H](CCc2ccc(C(F)(F)F)c(Cl)c2)NC(=O)CN(C2CC2)C(=O)[C@H](CC2CCCCC2)N(C)C(=O)CN(C)C(=O)CN(C)C1=O` [Compound 204] (cyclo([Ac5c][NMeV][d(β3hA)][NMeL]I[Sar][Sar][NMeCha][NcPrGly][hPhe(3-Cl-4-CF3)]P)), the IC50 is 180 nM.

As to `CC[C@H](C)[C@@H]1NC(=O)[C@H](C)N(C)C(=O)C[C@@H](C)NC(=O)[C@H](C2CCCC2)N(C)C(=O)C2(CCCC2)NC(=O)[C@@H]2CCCN2C(=O)[C@H](CCc2ccc(C(F)(F)F)c(Cl)c2)NC(=O)[C@@H](C)N(C)C(=O)[C@H](Cc2ccc(F)cc2)N(C)C(=O)CN(C)C(=O)CN(C)C1=O` [Compound 206] (cyclo([Ac5c][NMeGly(cPent)][d(β3hA)][NMeA]I[Sar][Sar][NMePhe(4-F)][dNMeA][hPhe(3-Cl-4-CF3)]P)), the IC50 came out at 110 nM.

As to `CC[C@H](C)[C@@H]1NC(=O)[C@H](CC(C)C)N(C)C(=O)C[C@@H](C(=O)N2CCCCC2)N(C)C(=O)[C@H](COCC(F)(F)F)N(C)C(=O)C2(CCCC2)NC(=O)[C@@H]2CCCN2C(=O)[C@H](CCc2ccc(C(F)(F)F)c(Cl)c2)NC(=O)CN(C)C(=O)[C@H](CC2CCCCC2)N(C)C(=O)CN(C)C(=O)CN(C)C1=O` [Compound 208] ([NMeL]I[Sar][Sar][NMeCha][Sar][hPhe(3-Cl-4-CF3)]P[Ac5c][NMeS](Trifluoroethyl)[NMeD]-Piperidide; lactam N-11), the half-inhibitory concentration (IC50) came out at 120 nM.

As for `CC[C@H](C)[C@@H]1NC(=O)[C@H](CC(C)C)N(C)C(=O)C[C@@H](C)NC(=O)[C@H](C(C)C)N(C)C(=O)C2(CCCC2)NC(=O)[C@@H]2CCCN2C(=O)[C@H](CCc2ccc(C(F)(F)F)c(Cl)c2)NC(=O)CN(C)C(=O)[C@H](CC2CCCCC2)N(C)C(=O)CN(C)C(=O)CN(CC)C1=O` [Compound 210] (cyclo([Ac5c][NMeV][d(β3hA)][NMeL]I[NEtG][Sar][NMeCha][Sar][hPhe(3-Cl-4-CF3)]P)), the IC50 was 80 nM.

In the case of `CC[C@H](C)[C@@H]1NC(=O)[C@@H]2CCCCN2C(=O)C[C@@H](C)NC(=O)[C@H](CC(C)C)N(C)C(=O)C2(CCCC2)NC(=O)[C@H](CC(C)C)N(C)C(=O)[C@H](CCc2ccc(C(F)(F)F)c(Cl)c2)NC(=O)CN(C)C(=O)[C@H](CC2CCCCC2)N(C)C(=O)CN(C)C(=O)CN(C)C1=O` [Compound 213] (cyclo([Ac5c][NMeL][d(β3hA)][Pip]I[Sar][Sar][NMeCha][Sar][hPhe(3-Cl-4-CF3)][NMeL])), the IC50 amounted to 48 nM.

Regarding `CC[C@H](C)[C@@H]1NC(=O)[C@H](CC(C)C)N(C)C(=O)C[C@@H](C(=O)N(C)C)N(C)C(=O)[C@H](C(C)C)N(C)C(=O)C2(CCCC2)NC(=O)[C@H](CC(=O)N2CCC(F)(F)CC2)N(C)C(=O)[C@H](CCc2ccc(C(F)(F)F)c(Cl)c2)NC(=O)CN(C)C(=O)[C@H](CC2CCCCC2)N(C)C(=O)CN(C)C(=O)CN(C)C1=O` [Compound 218] ([NMeL]I[Sar][Sar][NMeCha][Sar][hPhe(3-Cl-4-CF3)][NMeD](N(CH2CH2)2CF2)[Ac5c][NMeV][NMeD]-NMe2; lactam N-11), the IC50 is 1.9 nM.

In the case of `CC[C@H](C)[C@@H]1NC(=O)[C@H](CC(C)C)N(C)C(=O)C[C@@H](C(=O)N(C)C)N(C)C(=O)[C@H](C2CCCC2)N(C)C(=O)[C@H](CC(F)(F)F)NC(=O)[C@H](CC(=O)N2CC(F)(F)C2)N(C)C(=O)[C@H](CCc2ccc(C(F)(F)F)c(Cl)c2)NC(=O)CN(C)C(=O)[C@H](CC2CCCCC2)N(C)C(=O)[C@@H]2CCN2C(=O)[C@H](C)N(C)C1=O` [Compound 222] ([NMeL]I[NMeA][Aze][NMeCha][Sar][hPhe(3-Cl-4-CF3)][NMeD](Azetidine(3,3-F2))[Abu(4,4,4-F3)][NMeGly(cPent)][NMeD]-NMe2; lactam N-11), the half-inhibitory concentration (IC50) worked out at 20 nM.
